From patent publication US20140249135A1, “PIM KINASE INHIBITORS AND METHODS OF THEIR USE” (NOVARTIS AG, priority 2007, published 2014)
Like-named read-outs stand apart in the source and are kept apart here.

Columns and labels:
Type in all cases: biochemical
Pim3 kinase = Pim3 kinase (Homo sapiens, UniProt Q86V86); experiment: Pim3 ATP depletion assay
Pim2 kinase = Pim2 kinase (Homo sapiens, UniProt Q9P1W9); experiment: Pim2 ATP depletion assay;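 note: Luciferase-based luminescent readout of ATP remaining after PIM2 phosphorylates a BAD peptide, final 5 nM enzyme, 4 µM ATP, 10 µM peptide, 2.5% DMSO, run to roughly half ATP consumption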
Pim1 kinase = Pim1 kinase (Homo sapiens, UniProt P11309); experiment: Pim1 ATP depletion assay; conditions: Pim1 ATP depletion assay;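 note: Luciferase-luciferin luminescence readout of residual ATP after PIM1 transfers phosphate to a peptide substrate, 40 µM ATP added, reaction run to roughly half ATP consumption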

Measured: IC50

Sequence of Pim2 kinase (Q9P1W9 whole entry): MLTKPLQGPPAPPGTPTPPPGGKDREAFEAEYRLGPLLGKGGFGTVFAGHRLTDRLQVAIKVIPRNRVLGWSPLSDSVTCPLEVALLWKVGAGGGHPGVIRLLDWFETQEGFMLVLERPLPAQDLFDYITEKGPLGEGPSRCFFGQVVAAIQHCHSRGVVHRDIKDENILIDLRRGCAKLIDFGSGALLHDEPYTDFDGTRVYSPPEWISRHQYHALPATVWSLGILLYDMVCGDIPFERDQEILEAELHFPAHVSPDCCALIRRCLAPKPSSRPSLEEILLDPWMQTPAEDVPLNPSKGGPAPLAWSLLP
Sequence of Pim1 kinase (P11309 whole entry): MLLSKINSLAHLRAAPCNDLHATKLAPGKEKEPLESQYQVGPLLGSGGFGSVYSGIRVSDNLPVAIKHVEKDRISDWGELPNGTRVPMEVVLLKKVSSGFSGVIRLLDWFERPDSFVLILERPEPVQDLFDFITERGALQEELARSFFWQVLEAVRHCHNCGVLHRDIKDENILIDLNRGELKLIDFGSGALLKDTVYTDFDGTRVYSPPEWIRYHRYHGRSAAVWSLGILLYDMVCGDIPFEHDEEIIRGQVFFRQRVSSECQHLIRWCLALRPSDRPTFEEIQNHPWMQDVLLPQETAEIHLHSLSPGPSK

Cc1cccc(C)c1-c1nc(C(=O)Nc2cnccc2N2CCC[C@H](N)C2)c(N)cc1F [Example 509, 3-Amino-6-(2,6-dimethyl-phenyl)-5-fluoro-pyridine-2-carboxylic acid (3-amino-3,4,5,6-tetrahydro-2H-[1,4′]bipyridinyl-3′-yl)-amide]
< 1 µM: Pim3 kinase; read-out: IC50 (μM) PIM3 | Pim2 kinase; read-out: IC50 (μM) PIM2 | Pim1 kinase; read-out: IC50 (μM) PIM1

COc1ccc(F)c(-c2nc(C(=O)Nc3cnccc3N3CCC[C@H](N)C3)c(N)cc2F)c1F [Example 510, 3-Amino-6-(2,6-difluoro-3-methoxy-phenyl)-5-fluoro-pyridine-2-carboxylic acid (3-amino-3,4,5,6-tetrahydro-2H-[1,4′]bipyridinyl-3′-yl)-amide]
< 1 µM: Pim3 kinase; read-out: IC50 (μM) PIM3 | Pim2 kinase; read-out: IC50 (μM) PIM2 | Pim1 kinase; read-out: IC50 (μM) PIM1

COc1ncccc1-c1nc(C(=O)Nc2cnccc2N2CCC[C@H](N)C2)c(N)cc1F [Example 511, 5-Amino-3-fluoro-2′-methoxy-[2,3′]bipyridinyl-6-carboxylic acid (3-amino-3,4,5,6-tetrahydro-2H-[1,4′]bipyridinyl-3′-yl)-amide]
< 1 µM: Pim3 kinase; read-out: IC50 (μM) PIM3 | Pim2 kinase; read-out: IC50 (μM) PIM2 | Pim1 kinase; read-out: IC50 (μM) PIM1

COc1cccc(-c2nc(C(=O)Nc3cnccc3N3CCC[C@H](N)C3)c(N)cc2F)n1 [Example 512, 5-Amino-3-fluoro-6′-methoxy-[2,2′]bipyridinyl-6-carboxylic acid (3-amino-3,4,5,6-tetrahydro-2H-[1,4′]bipyridinyl-3′-yl)-amide]
< 1 µM: Pim3 kinase; read-out: IC50 (μM) PIM3 | Pim2 kinase; read-out: IC50 (μM) PIM2 | Pim1 kinase; read-out: IC50 (μM) PIM1

Nc1cc(F)c(-c2ccncc2)nc1C(=O)Nc1cnccc1N1CCC[C@H](N)C1 [Example 513, 5-Amino-3-fluoro-[2,4′]bi-pyridinyl-6-carboxylic acid (3-amino-3,4,5,6-tetrahydro-2H-[1,4′]bipyridinyl-3′-yl)-amide]
< 1 µM: Pim3 kinase; read-out: IC50 (μM) PIM3 | Pim2 kinase; read-out: IC50 (μM) PIM2 | Pim1 kinase; read-out: IC50 (μM) PIM1

Nc1ccc(-c2nc(C(=O)Nc3cnccc3N3CCC[C@H](N)C3)c(N)cc2F)cn1 [Example 514, 5,6′-Diamino-3-fluoro-[2,3′]bi-pyridinyl-6-carboxylic acid (3-amino-3,4,5,6-tetrahydro-2H-[1,4′]bipyridinyl-3′-yl)-amide]
< 1 µM: Pim3 kinase; read-out: IC50 (μM) PIM3 | Pim2 kinase; read-out: IC50 (μM) PIM2 | Pim1 kinase; read-out: IC50 (μM) PIM1

CN(C)C(=O)c1ccc(F)c(-c2nc(C(=O)Nc3cnccc3N3CCC[C@H](N)C3)c(N)cc2F)c1 [Example 515, 3-Amino-6-(5-dimethylcarbamoyl-2-fluoro-phenyl)-5-fluoro-pyridine-2-carboxylic acid (3-amino-3,4,5,6-tetrahydro-2H-[1,4′]bipyridinyl-3′-yl)-amide]
< 1 µM: Pim3 kinase; read-out: IC50 (μM) PIM3 | Pim2 kinase; read-out: IC50 (μM) PIM2 | Pim1 kinase; read-out: IC50 (μM) PIM1

Nc1cc(-c2ccncc2NC(=O)c2cccc(-c3ccc(N4CCNCC4)cc3)n2)nc(C(F)(F)F)n1 [Example 525, 6-(4-Piperazin-1-yl-phenyl)-pyridine-2-carboxylic acid [4-(6-amino-2-trifluoromethyl-pyrimidin-4-yl)-pyridin-3-yl]-amide]
< 1 µM: Pim3 kinase; read-out: IC50 (μM) PIM3 | Pim2 kinase; read-out: IC50 (μM) PIM2 | Pim1 kinase; read-out: IC50 (μM) PIM1

Nc1cc(-c2ccncc2NC(=O)c2nc(C3=CCNCC3)ccc2N)nc(C(F)(F)F)n1 [Example 526, 5-Amino-1′,2′,3′,6′-tetrahydro-[2,4′]bipyridinyl-6-carboxylic acid [4-(6-amino-2-trifluoromethyl-pyrimidin-4-yl)-byridin-3-yl]-amide]
< 1 µM: Pim3 kinase; read-out: IC50 (μM) PIM3 | Pim2 kinase; read-out: IC50 (μM) PIM2 | Pim1 kinase; read-out: IC50 (μM) PIM1

Nc1cc(-c2ccncc2NC(=O)c2cccc(-c3ccc(F)cc3F)n2)nc(C(F)(F)F)n1 [Example 527, 6-(2,4-Difluoro-phenyl)-pyridine-2-carboxylic acid [4-(6-amino-2-trifluoromethyl-pyrimidin-4-yl)-pyridin-3-yl]-amide]
< 1 µM: Pim3 kinase; read-out: IC50 (μM) PIM3 | Pim2 kinase; read-out: IC50 (μM) PIM2 | Pim1 kinase; read-out: IC50 (μM) PIM1

Nc1cc(-c2ccncc2NC(=O)c2cccc(-c3c(F)cccc3F)n2)nc(C(F)(F)F)n1 [Example 528, 6-(2,6-Difluoro-phenyl)-pyridine-2-carboxylic acid [4-(6-amino-2-trifluoromethyl-pyrimidin-4-yl)-pyridin-3-yl]-amide]
< 1 µM: Pim3 kinase; read-out: IC50 (μM) PIM3 | Pim2 kinase; read-out: IC50 (μM) PIM2 | Pim1 kinase; read-out: IC50 (μM) PIM1

Nc1cc(-c2ccncc2NC(=O)c2cccc(-c3ccccc3F)n2)nc(C(F)(F)F)n1 [Example 529, 6-(2-Fluoro-phenyl)-pyridine-2-carboxylic acid [4-(6-amino-2-trifluoromethyl-pyrimidin-4-yl)-pyridin-3-yl]-amide]
< 1 µM: Pim3 kinase; read-out: IC50 (μM) PIM3 | Pim2 kinase; read-out: IC50 (μM) PIM2 | Pim1 kinase; read-out: IC50 (μM) PIM1

Nc1cc(-c2ccncc2NC(=O)c2cccc(-c3ccccc3)n2)nc(C(F)(F)F)n1 [Example 530, 6-Phenyl-pyridine-2-carboxylic acid [4-(6-amino-2-trifluoromethyl-pyrimidin-4-yl)-pyridin-3-yl]-amide]
< 1 µM: Pim3 kinase; read-out: IC50 (μM) PIM3 | Pim2 kinase; read-out: IC50 (μM) PIM2 | Pim1 kinase; read-out: IC50 (μM) PIM1

Nc1cc(-c2ccncc2NC(=O)c2nc(-c3ccccc3)ccc2N)nc(C(F)(F)F)n1 [Example 531, 3-Amino-6-phenyl-pyridine-2-carboxylic acid [4-(6-amino-2-trifluoromethyl-pyrimidin-4-yl)-pyridin-3-yl]-amide]
< 1 µM: Pim3 kinase; read-out: IC50 (μM) PIM3 | Pim2 kinase; read-out: IC50 (μM) PIM2 | Pim1 kinase; read-out: IC50 (μM) PIM1

CCCOc1ccc(F)c(-c2ccc(N)c(C(=O)Nc3cnccc3-c3cc(N)nc(SC)n3)n2)c1F [Example 532, 3-Amino-6-(2,6-difluoro-3-propoxy-phenyl)-pyridine-2-carboxylic acid [4-(6-amino-2-methylsulfanyl-pyrimidin-4-yl)-pyridin-3-yl]-amide]
< 1 µM: Pim3 kinase; read-out: IC50 (μM) PIM3 | Pim2 kinase; read-out: IC50 (μM) PIM2 | Pim1 kinase; read-out: IC50 (μM) PIM1

CCCOc1ccc(F)c(-c2ccc(N)c(C(=O)Nc3cnccc3-c3cc(N)nc(C)n3)n2)c1F [Example 533, 3-Amino-6-(2,6-difluoro-3-propoxy-phenyl)-pyridine-2-carboxylic acid [4-(6-amino-2-methyl-pyrimidin-4-yl)-pyridin-3-yl]-amide]
< 1 µM: Pim3 kinase; read-out: IC50 (μM) PIM3 | Pim2 kinase; read-out: IC50 (μM) PIM2 | Pim1 kinase; read-out: IC50 (μM) PIM1

CSc1nc(N)cc(-c2ccncc2NC(=O)c2nc(-c3c(F)ccc(OC(C)C)c3F)ccc2N)n1 [Example 536, 3-Amino-6-(2,6-difluoro-3-isopropoxy-phenyl)-pyridine-2-carboxylic acid [4-(6-amino-2-methylsulfanyl-pyrimidin-4-yl)-pyridin-3-yl]-amide]
< 1 µM: Pim3 kinase; read-out: PIM3 IC50 | Pim2 kinase; read-out: PIM2 IC50 | Pim1 kinase; read-out: PIM1 IC50

Cc1nc(N)cc(-c2ccncc2NC(=O)c2nc(-c3c(F)ccc(OC(C)C)c3F)ccc2N)n1 [Example 537, 3-Amino-6-(2,6-difluoro-3-isopropoxy-phenyl)-pyridine-2-carboxylic acid [4-(6-amino-2-methyl-pyrimidin-4-yl)-pyridin-3-yl]-amide]
< 1 µM: Pim3 kinase; read-out: PIM3 IC50 | Pim2 kinase; read-out: PIM2 IC50 | Pim1 kinase; read-out: PIM1 IC50

Cc1cc(-c2ccncc2NC(=O)c2nc(-c3cc(C(=O)NC(C)C)ccc3F)ccc2N)cc(N)n1 [Example 539, 3-Amino-6-(2-fluoro-5-isopropylcarbamoyl-phenyl)-pyridine-2-carboxylic acid (2′-amino-6′-methyl-[4,4′]bi-pyridinyl-3-yl)-amide]
< 1 µM: Pim3 kinase; read-out: PIM3 IC50 | Pim2 kinase; read-out: PIM2 IC50 | Pim1 kinase; read-out: PIM1 IC50

CCNC(=O)c1ccc(F)c(-c2ncc(N)c(C(=O)Nc3cnccc3N3CCC[C@H](N)C3)n2)c1 [Example 540, 5-Amino-2-(5-ethylcarbamoyl-2-fluoro-phenyl)-pyrimidine-4-carboxylic acid (3-amino-3,4,5,6-tetrahydro-2H-[1,4′]bipyridinyl-3′-yl)-amide]
< 1 µM: Pim3 kinase; read-out: PIM3 IC50 | Pim2 kinase; read-out: PIM2 IC50 | Pim1 kinase; read-out: PIM1 IC50

CC(C)Oc1ccc(F)c(-c2ncc(N)c(C(=O)Nc3cnccc3N3CCC[C@H](N)C3)n2)c1 [Example 541, 5-Amino-2-(2-fluoro-5-isopropoxy-phenyl)-pyrimidine-4-carboxylic acid (3-amino-3,4,5,6-tetrahydro-2H-[1,4′]bi-pyridinyl-3′-yl)-amide]
< 1 µM: Pim3 kinase; read-out: PIM3 IC50 | Pim2 kinase; read-out: PIM2 IC50 | Pim1 kinase; read-out: PIM1 IC50

Nc1cnc(-c2cccc(F)c2F)nc1C(=O)Nc1cnccc1N1CCC[C@H](N)C1 [Example 546, 5-Amino-2-(2,3-difluoro-phenyl)-pyrimidine-4-carboxylic acid (3-amino-3,4,5,6-tetrahydro-2H-[1,4′]bipyridinyl-3′-yl)-amide]
< 1 µM: Pim3 kinase; read-out: PIM3 IC50 | Pim2 kinase; read-out: PIM2 IC50 | Pim1 kinase; read-out: PIM1 IC50

CCOc1ccc(F)c(-c2ncc(N)c(C(=O)Nc3cnccc3N3CCC[C@H](N)C3)n2)c1 [Example 548, 5-Amino-2-(5-ethoxy-2-fluoro-phenyl)-pyrimidine-4-carboxylic acid (3-amino-3,4,5,6-tetrahydro-2H-[1,4′]bipyridinyl-3′-yl)-amide]
< 1 µM: Pim3 kinase; read-out: PIM3 IC50 | Pim2 kinase; read-out: PIM2 IC50 | Pim1 kinase; read-out: PIM1 IC50

COc1ccccc1-c1ncc(N)c(C(=O)Nc2cnccc2N2CCC[C@H](N)C2)n1 [Example 551, 5-Amino-2-(2-methoxy-phenyl)-pyrimidine-4-carboxylic acid (3-amino-3,4,5,6-tetrahydro-2H-[1,4′]bipyridinyl-3′-yl)-amide]
< 1 µM: Pim3 kinase; read-out: PIM3 IC50 | Pim2 kinase; read-out: PIM2 IC50 | Pim1 kinase; read-out: PIM1 IC50
